Results taken from patent US20100184683A1, “ANTIBACTERIAL AND ANTIFUNGAL PEPTIDES” (C3 JIAN, INC., priority 2009, published 2010).
≈ marks a conversion by molar mass, not a printed value. Read-outs that look alike come from different tables or passages of the source. Ends that are not written are not given here. Peptide text beside a SMILES is read from it.

Key:
MRSA = type: cell-based, Methicillin-resistant Staphylococcus aureus
Protocol: (§1) In certain embodiments the MIC assays are performed as described herein in the Examples. For each organism, the media and growth conditions utilized is detailed in Table 8.
(§2) In certain embodiments the MIC assays are performed as follows: For each organism, the media and growth conditions utilized is detailed in Table 8.

S. pneumoniae = type: cell-based, Streptococcus pneumoniae
Protocol: as §1, §2

S. epidermidis = type: cell-based
Outline: (§3)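 MIC read-out; medium and growth conditions specific to each test organism.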

E. coli = type: cell-based, Escherichia coli
Protocol: as §1, §2

S. mutans = type: cell-based, Streptococcus mutans
Protocol: as §1, §2

P. gingivalis = type: cell-based, Porphyromonas gingivalis
Protocol: as §1, §2

F. nucleatum = type: cell-based, Fusobacterium nucleatum
Protocol: as §1, §2

A. naeslundii = type: cell-based, Actinomyces naeslundii
Protocol: as §1, §2

P. aeruginosa = type: cell-based, Pseudomonas aeruginosa
Protocol: as §1, §2

T. rubrum = type: cell-based, Trichophyton rubrum
Outline: as §3

C. albicans = type: cell-based, Candida albicans
Protocol: as §1, §2

M. furfur ATCC 14521 = details: 5 μM peptide, after 15 min of treatment, 10^6 cells/ml, ATCC medium 1072, 30° C.
Protocol: FIG. 1. Killing kinetics of PF-S028 L and D versions against M. furfur were determined using standard time-kill methods previously detailed (Eckert et al. (2006) Antimicrob Agents Chemother., 50: 1480-1488). Briefly, a log phase culture of M. furfur ATCC 14521 was diluted to 10^6 cells/ml in ATCC medium 1072. To the reaction tubes 5 μM of either PF-S028 L or PF-S028 D were added. A reaction tube to which 4 μl of 50% methanol served as the negative control. Reaction tubes were stored at 30° C. and at indicated intervals an aliquot was removed from the reaction tube and placed in a recovery tube where peptide was removed by dilution. An aliquot from the recovery tube was plated on ATCC medium 1072 agar plates and incubated at 30° C. until visible colonies formed. Colony forming units were calculated for the negative control (no peptide), PF-S028 L, and PF-S028 D treated cultures.
In some cases killing kinetic experiments were then conducted. Killing kinetics of PF-S028 L and D versions against M. furfur were determined as described in Eckert et al. (2006) Antimicrob Agents Chemother., 50: 1480-1488. Briefly, a log phase culture of M. furfur ATCC 14521 was diluted to 10^6 cells/ml in ATCC medium 1072. To the reaction tubes 5 μM of either PF-S028 L or PF-S028 D were added. […] Colony forming units were calculated for the negative control (no peptide), PF-S028 L, and PF-S028 D treated cultures.

C. jeikeium = experiment: MIC assay, C. jeikeium; type: cell-based, Corynebacterium jeikium; details: TSB supplemented with 1% Tween-80, 37° C., aerobic, inoculum 10^6 CFU/ml, 18-24 h or 48 h
Protocol: as §1, §2

M. furfur = experiment: MIC assay, M. furfur; type: cell-based, Malassezia furfur; details: ATCC medium 1072, 37° C., aerobic, inoculum 10^5 CFU/ml, 18-24 h or 48 h
Protocol: as §1, §2

B. subtilis = type: cell-based, Bacillus subtilis
Outline: as §3

Compound: CC[C@H](C)[C@H](NC(=O)[C@H](CCCCN)NC(=O)CNC(=O)[C@H](CC(N)=O)NC(=O)[C@H](CCC(N)=O)NC(=O)[C@H](Cc1ccc(O)cc1)NC(=O)[C@H](C)NC(=O)[C@H](CCCCN)NC(=O)[C@H](C)NC(=O)[C@H](Cc1ccccc1)NC(=O)[C@H](CC(=O)O)NC(=O)[C@H](CCC(N)=O)NC(=O)[C@H](Cc1c[nH]cn1)NC(=O)[C@H](CO)NC(=O)[C@H](CC(N)=O)NC(=O)[C@H](Cc1ccccc1)NC(=O)[C@H](CO)NC(=O)[C@H](CC(C)C)NC(=O)[C@H](C)NC(=O)[C@@H](NC(=O)[C@H](CC(N)=O)NC(=O)[C@@H](NC(=O)[C@H](CCCCN)NC(=O)[C@H](CCCCN)NC(=O)[C@H](CCC(=O)O)NC(=O)[C@H](CCCCN)NC(=O)[C@H](CC(=O)O)NC(=O)[C@H](CC(C)C)NC(=O)[C@H](CCC(=O)O)NC(=O)[C@H](CCCCN)NC(=O)[C@H](CO)NC(=O)[C@H](C)NC(=O)[C@H](CC(N)=O)NC(=O)[C@H](CC(C)C)NC(=O)[C@@H](NC(=O)[C@H](CCCCN)NC(=O)[C@H](CO)NC(=O)[C@H](CCC(=O)O)NC(=O)[C@@H](N)Cc1ccccc1)[C@@H](C)CC)C(C)C)[C@@H](C)O)C(=O)O [PF-606] (H-FESKILNASKELDKEKKVNTALSFNSHQDFAKAYQNGKI-OH; N-terminus and C-terminus assumed)
- MIC (MRSA): 50 µM (≈ 222 µg/mL)
- MIC (S. pneumoniae): 50 µM (≈ 222 µg/mL)
- MIC (S. epidermidis): 50 µM (≈ 222 µg/mL)
- MIC (E. coli): 50 µM (≈ 222 µg/mL)
- MIC (S. mutans): 50 µM (≈ 222 µg/mL)

Compound: CC[C@H](C)[C@H](NC(=O)[C@H](CCC(N)=O)NC(=O)[C@H](CCCCN)NC(=O)[C@H](CC(C)C)NC(=O)[C@H](CC(C)C)NC(=O)[C@@H]1CCCN1C(=O)[C@H](CCSC)NC(=O)[C@H](CC(C)C)NC(=O)[C@H](CO)NC(=O)[C@H](CCCCN)NC(=O)CNC(=O)[C@@H](N)CCCCN)C(=O)N[C@@H](CC(N)=O)C(=O)N[C@@H](CCC(N)=O)C(=O)N[C@@H](Cc1c[nH]c2ccccc12)C(=O)NCC(=O)N[C@@H](CCCCN)C(=O)N[C@@H](CC(C)C)C(=O)N[C@@H](Cc1ccc(O)cc1)C(=O)N[C@@H](CC(C)C)C(=O)O [PF-C239] (H-KGKSLMPLLKQINQWGKLYL-OH; N-terminus and C-terminus assumed)
- MIC (P. gingivalis): 50 µM (≈ 118 µg/mL)
- MIC (F. nucleatum): 50 µM (≈ 118 µg/mL)
- MIC (A. naeslundii): 25 µM (≈ 59 µg/mL)
- MIC (S. mutans): 50 µM (≈ 118 µg/mL)

Compound: CC[C@H](C)[C@H](NC(=O)[C@H](C)NC(=O)[C@H](CC(N)=O)NC(=O)[C@@H](NC(=O)[C@H](CC(C)C)NC(=O)[C@H](CCCNC(=N)N)NC(=O)[C@H](Cc1ccc(O)cc1)NC(=O)[C@@H](N)CC(N)=O)C(C)C)C(=O)N[C@@H](Cc1ccccc1)C(=O)N[C@@H](CO)C(=O)N[C@@H](CCCCN)C(=O)N[C@H](C(=O)N[C@@H](Cc1ccccc1)C(=O)N[C@@H](CCCCN)C(=O)N[C@@H](CCCCN)C(=O)N[C@@H](CCCCN)C(=O)N[C@@H](Cc1ccccc1)C(=O)N[C@H](C(=O)N[C@@H](CCCCN)C(=O)N[C@@H](Cc1ccccc1)C(=O)O)[C@@H](C)CC)[C@@H](C)CC [PF-C252] (H-NYRLVNAIFSKIFKKKFIKF-OH; N-terminus and C-terminus assumed)
- MIC (P. gingivalis): 25 µM (≈ 62.6 µg/mL)
- MIC (P. aeruginosa): 50 µM (≈ 125 µg/mL)
- MIC (MRSA): 50 µM (≈ 125 µg/mL)
- MIC (F. nucleatum): 25 µM (≈ 62.6 µg/mL)
- MIC (T. rubrum): 50 µM (≈ 125 µg/mL)
- MIC (C. albicans): 25 µM (≈ 62.6 µg/mL)
- MIC (A. naeslundii): 25 µM (≈ 62.6 µg/mL)
- MIC (S. epidermidis): 25 µM (≈ 62.6 µg/mL)
- MIC (S. mutans): 12.5 µM (≈ 31.3 µg/mL)

Compound: CC[C@@H](C)[C@@H](NC(=O)[C@H](NC(=O)[C@@H](CO)NC(=O)CN)C(C)C)C(=O)N[C@H](CCCCN)C(=O)N[C@H](CCCCN)C(=O)N[C@H](CCCNC(=N)N)C(=O)N[C@H](CCCNC(=N)N)C(=O)N[C@H](CCCCN)C(=O)N[C@H](CCCNC(=N)N)C(=O)N[C@H](CCSC)C(=O)N[C@H](CO)C(=O)N[C@H](CCCCN)C(=O)N[C@H](CCCCN)C(=O)N[C@H](CCCCN)C(=O)N[C@H](Cc1c[nH]cn1)C(=O)N[C@H](CCCNC(=N)N)C(=O)N[C@H](CCCCN)C(=O)N[C@H](CCSC)C(=O)N[C@H](CC(C)C)C(=O)N[C@H](CCCNC(=N)N)C(=O)N[C@H](CCCNC(=N)N)C(=O)N[C@@H](C(=O)N[C@H](CCCNC(=N)N)C(=O)N[C@@H](C(=O)N[C@H](CCC(N)=O)C(=O)N[C@H](CCCNC(=N)N)C(=O)N[C@H](CCCNC(=N)N)C(=O)N[C@H](CCCCN)C(=O)N[C@H](CC(C)C)C(=O)NCC(=O)N[C@H](CCCCN)C(=O)O)C(C)C)[C@H](C)O [PF-S028 D]
- M. furfur killed (M. furfur ATCC 14521): over 99%

Compound: CC[C@H](C)[C@H](NC(=O)[C@@H](NC(=O)[C@H](CO)NC(=O)CN)C(C)C)C(=O)N[C@@H](CCCCN)C(=O)N[C@@H](CCCCN)C(=O)N[C@@H](CCCNC(=N)N)C(=O)N[C@@H](CCCNC(=N)N)C(=O)N[C@@H](CCCCN)C(=O)N[C@@H](CCCNC(=N)N)C(=O)N[C@@H](CCSC)C(=O)N[C@@H](CO)C(=O)N[C@@H](CCCCN)C(=O)N[C@@H](CCCCN)C(=O)N[C@@H](CCCCN)C(=O)N[C@@H](Cc1c[nH]cn1)C(=O)N[C@@H](CCCNC(=N)N)C(=O)N[C@@H](CCCCN)C(=O)N[C@@H](CCSC)C(=O)N[C@@H](CC(C)C)C(=O)N[C@@H](CCCNC(=N)N)C(=O)N[C@@H](CCCNC(=N)N)C(=O)N[C@H](C(=O)N[C@@H](CCCNC(=N)N)C(=O)N[C@H](C(=O)N[C@@H](CCC(N)=O)C(=O)N[C@@H](CCCNC(=N)N)C(=O)N[C@@H](CCCNC(=N)N)C(=O)N[C@@H](CCCCN)C(=O)N[C@@H](CC(C)C)C(=O)NCC(=O)N[C@@H](CCCCN)C(=O)O)C(C)C)[C@@H](C)O [PF-S028 L]
- M. furfur killed (M. furfur ATCC 14521): 39%

Compound: CC[C@H](C)[C@H](NC(=O)[C@@H](NC(=O)[C@H](CO)NC(=O)CN)C(C)C)C(=O)N[C@@H](CCCCN)C(=O)N[C@@H](CCCCN)C(=O)N[C@@H](CCCNC(=N)N)C(=O)N[C@@H](CCCNC(=N)N)C(=O)N[C@@H](CCCCN)C(=O)N[C@@H](CCCNC(=N)N)C(=O)N[C@@H](CCSC)C(=O)N[C@@H](CO)C(=O)N[C@@H](CCCCN)C(=O)N[C@@H](CCCCN)C(=O)N[C@@H](CCCCN)C(=O)N[C@@H](Cc1c[nH]cn1)C(=O)N[C@@H](CCCNC(=N)N)C(=O)N[C@@H](CCCCN)C(=O)N[C@@H](CCSC)C(=O)N[C@@H](CC(C)C)C(=O)N[C@@H](CCCNC(=N)N)C(=O)N[C@@H](CCCNC(=N)N)C(=O)N[C@H](C(=O)N[C@@H](CCCNC(=N)N)C(=O)N[C@H](C(=O)N[C@@H](CCC(N)=O)C(=O)N[C@@H](CCCNC(=N)N)C(=O)N[C@@H](CCCNC(=N)N)C(=O)N[C@@H](CCCCN)C(=O)N[C@@H](CC(C)C)C(=O)NCC(=O)N[C@@H](CCCCN)C(=O)O)C(C)C)[C@@H](C)O [PF-S028]
- MIC (P. gingivalis; P. gingivalis, Columbia broth, 37° C., anaerobic, inoculum 10^5 CFU/ml, 18-24 h or 48 h): 25 µM (≈ 101 µg/mL)
- MIC (P. aeruginosa; P. aeruginosa, MH, 37° C., aerobic, inoculum 10^5 CFU/ml, 18-24 h or 48 h): 50 µM (≈ 202 µg/mL)
- MIC (MRSA; MRSA, BHI supplemented with 2% glucose, 37° C., aerobic, inoculum 10^5 CFU/ml, 18-24 h or 48 h): 50 µM (≈ 202 µg/mL)
- MIC (C. jeikeium): 6.25 µM (≈ 25.2 µg/mL)
- MIC (M. furfur): 2.5 µM (≈ 10.1 µg/mL)
- MIC (T. rubrum; T. rubrum, Potato Dextrose Agar, 25° C., aerobic, inoculum 10^5 CFU/ml, 18-24 h or 48 h): 50 µM (≈ 202 µg/mL)
- MIC (S. epidermidis; S. epidermidis, BHI supplemented with 0.25% glucose, 37° C., aerobic, inoculum 10^5 CFU/ml, 18-24 h or 48 h): 25 µM (≈ 101 µg/mL)
- MIC (S. mutans; S. mutans, TH supplemented with 1% sucrose, 37° C., anaerobic, inoculum 10^5 CFU/ml, 18-24 h or 48 h): 50 µM (≈ 202 µg/mL)
- MIC (B. subtilis): 12.5 µM (≈ 50.4 µg/mL)

Compound: TKKIELKRFVDAFVKKSYENYILERELKKLIKAINEELPTK [PF-600]
- MIC (S. pneumoniae): 50 µM
- MIC (E. coli): 50 µM
